The record followed here is patent US9469637B2, “Nitrogenated heterocyclic compound” (Takeda Pharmaceutical Company Limited, priority 2012, dated 2016).

In the assay the target is T1, Human PDE2A3 enzyme (Homo sapiens, UniProt O00408).
T1 construct: generated from Sf9 cells transfected with the full-length gene; His-tag; made in house; host or cells: Sf9 insect cells
T1 sequence (O00408 whole entry): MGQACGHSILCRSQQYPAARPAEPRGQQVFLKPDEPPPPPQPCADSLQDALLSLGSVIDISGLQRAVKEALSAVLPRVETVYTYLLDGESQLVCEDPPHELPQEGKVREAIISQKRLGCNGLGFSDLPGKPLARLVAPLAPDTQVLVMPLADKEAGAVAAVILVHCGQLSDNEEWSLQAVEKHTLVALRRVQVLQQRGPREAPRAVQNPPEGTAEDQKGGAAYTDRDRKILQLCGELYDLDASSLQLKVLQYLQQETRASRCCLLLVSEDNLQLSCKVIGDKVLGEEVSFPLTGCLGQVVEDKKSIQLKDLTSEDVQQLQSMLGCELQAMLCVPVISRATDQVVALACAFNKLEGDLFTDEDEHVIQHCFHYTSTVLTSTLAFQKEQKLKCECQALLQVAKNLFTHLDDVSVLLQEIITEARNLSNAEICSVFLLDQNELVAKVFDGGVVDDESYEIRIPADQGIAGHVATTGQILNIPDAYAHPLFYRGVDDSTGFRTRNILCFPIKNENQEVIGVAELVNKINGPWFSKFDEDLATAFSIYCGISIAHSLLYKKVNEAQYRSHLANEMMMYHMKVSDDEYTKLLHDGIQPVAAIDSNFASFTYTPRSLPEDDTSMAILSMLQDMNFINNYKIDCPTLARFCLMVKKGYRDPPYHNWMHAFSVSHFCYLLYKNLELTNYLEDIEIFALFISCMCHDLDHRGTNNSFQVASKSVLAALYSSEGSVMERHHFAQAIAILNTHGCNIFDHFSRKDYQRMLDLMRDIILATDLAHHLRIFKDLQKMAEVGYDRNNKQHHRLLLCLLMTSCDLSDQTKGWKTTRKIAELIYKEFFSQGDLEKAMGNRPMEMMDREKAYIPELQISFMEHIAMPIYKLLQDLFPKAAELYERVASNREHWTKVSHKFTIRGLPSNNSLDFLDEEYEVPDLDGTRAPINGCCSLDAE
Description: PDE2A3 enzyme inhibition, SPA (Scintillation Proximity Assay). It is filed as biochemical. The following applies: 1 μM compound, substrate [3H] cGMP, read-out: Inhibition Rate (%) (1 μM). Here is the method: Human PDE2A3 enzyme was generated from Sf9 cells transfected with the full-length gene. The extracted enzyme from Sf9 cells was purified by His-tag affinity column and gel filtration. The enzyme was stored at −70° C. until use. PDE activity was measured using a SPA (Scintillation Proximity Assay) (GE Healthcare). To evaluate the inhibitory activity, 10 μl of serial diluted compounds were incubated with 20 μl of PDE enzyme in assay buffer (50 mM HEPES-NaOH, 8.3 mM MgCl2, 1.7 mM EGTA, 0.1% BSA (pH 7.4)) for 30 min. at room temperature. Final concentration of DMSO in the assay was 1 percent as compounds were tested in duplicate in 96-well half-area plates (Corning) or 384-well OptiPlate (PerkinElmer). To start the reaction, 10 μl of substrate [^3H] cGMP (77 nM, PerkinElmer) was added for a final assay volume of 40 μl. After 60 min incubation at room temperature, 20 μl of 20 mg/ml yttrium SPA beads containing Zinc sulphate was added to terminate the PDE reaction. […] Inhibition rate was calculated on the basis of 0% control wells with enzyme and DMSO, and 100% control wells without enzyme.
`CCC(NC(=O)N1CC(=O)Nc2ccc(OC)nc21)c1ccc(OC(F)(F)F)cc1` (stereo not drawn) [Example 52, 6-methoxy-2-oxo-N-(1-(4-(trifluoromethoxy)phenyl)propyl)-2,3-dihydropyrido[2,3-b]pyrazine-4(1H)-carboxamide]: the inhibition at 1 µM turned out to be 93%.
The same measure for `CC(C)(O)C(NC(=O)N1CC(=O)Nc2cc(C3CC3)cnc21)c1ccc(C(F)(F)F)cc1` (stereo not drawn) [Example 266, Optically active 7-cyclopropyl-N-(2-hydroxy-2-methyl-1-(4-(trifluoromethyl)phenyl)propyl)-2-oxo-2,3-dihydropyrido[2,3-b]pyrazine-4(1H)-carboxamide]: 100%.
Turning to `COc1nc2c(cc1C)NC(=O)CN2C(=O)N[C@@H](c1ccc(OC(F)(F)F)cc1)C(C)(C)O` [Example 261, N-((1S)-2-hydroxy-2-methyl-1-(4-(trifluoromethoxy)phenyl)propyl)-6-methoxy-7-methyl-2-oxo-2,3-dihydropyrido[2,3-b]pyrazine-4(1H)-carboxamide], the inhibition at 1 µM was found to be 100%.
The same measure for `COCC(NC(=O)N1CC(=O)Nc2cc(C)cnc21)c1ccc(-n2cccn2)c(F)c1` (stereo not drawn) [Example 143, N-(1-(3-fluoro-4-(1H-pyrazol-1-yl)phenyl)-2-methoxyethyl)-7-methyl-2-oxo-2,3-dihydropyrido[2,3-b]pyrazine-4(1H)-carboxamide]: 98%; for `Cc1cnc2c(c1)NC(=O)CN2C(=O)NC1(c2ccc(OC(F)(F)F)cc2)CC1` [Example 152, 7-methyl-2-oxo-N-(1-(4-(trifluoromethoxy)phenyl)cyclopropyl)-2,3-dihydropyrido[2,3-b]pyrazine-4(1H)-carboxamide]: 97%; for `CC(C)(O)C(NC(=O)N1CC(=O)Nc2cc(C3CC3)cnc21)c1ccc(OC(F)(F)F)c(F)c1` (stereo not drawn) [Example 76, Optically active 7-cyclopropyl-N-(1-(3-fluoro-4-(trifluoromethoxy)phenyl)-2-hydroxy-2-methylpropyl)-2-oxo-2,3-dihydropyrido[2,3-b]pyrazine-4(1H)-carboxamide]: 100%.
As for `COC[C@@H](NC(=O)N1CC(=O)Nc2ccc(-n3cccn3)nc21)c1ccc(OC(F)(F)F)cc1` [Example 130, N-((1S)-2-methoxy-1-(4-(trifluoromethoxy)phenyl)ethyl)-2-oxo-6-(1H-pyrazol-1-yl)-2,3-dihydropyrido[2,3-b]pyrazine-4(1H)-carboxamide], the inhibition at 1 µM worked out at 99%.
In the case of `COc1cc2c(nc1C)N(C(=O)N[C@@H](c1ccc(OC(F)(F)F)cc1)C(C)(C)O)CC(=O)N2` [Example 253, N-((1S)-2-hydroxy-2-methyl-1-(4-(trifluoromethoxy)phenyl)propyl)-7-methoxy-6-methyl-2-oxo-2,3-dihydropyrido[2,3-b]pyrazine-4(1H)-carboxamide], the inhibition at 1 µM worked out at 100%.
`COC[C@@H](NC(=O)N1CC(=O)Nc2ccc(-n3cccn3)nc21)c1ccc(OC(F)(F)F)c(F)c1` [Example 117, N-((1S)-1-(3-fluoro-4-(trifluoromethoxy)phenyl)-2-methoxyethyl)-2-oxo-6-(1H-pyrazol-1-yl)-2,3-dihydropyrido[2,3-b]pyrazine-4(1H)-carboxamide]: the inhibition at 1 µM came out at 99%.
On to `CCC(NC(=O)N1CC(=O)Nc2cc(C)cnc21)c1ccc(-n2cccn2)s1` (stereo not drawn) [Example 162, 7-methyl-2-oxo-N-(1-(5-(1H-pyrazol-1-yl)-2-thienyl)propyl)-2,3-dihydropyrido[2,3-b]pyrazine-4(1H)-carboxamide], for which the inhibition at 1 µM is 97%.
`Cc1cnc2c(c1)NC(=O)CN2C(=O)NC(c1ccc(OC(F)(F)F)c(F)c1)C(C)(C)O` (stereo not drawn) [Example 273, Optically active N-(1-(3-fluoro-4-(trifluoromethoxy)phenyl)-2-hydroxy-2-methylpropyl)-7-methyl-2-oxo-2,3-dihydropyrido[2,3-b]pyrazine-4(1H)-carboxamide]: the inhibition at 1 µM came to 98%.
The same measure for `COCC(NC(=O)N1CC(=O)Nc2cc(C)cnc21)c1ccc(-n2cccn2)cc1` (stereo not drawn) [Example 134, N-(2-methoxy-1-(4-(H-pyrazol-1-yl)phenyl)ethyl)-7-methyl-2-oxo-2,3-dihydropyrido[2,3-b]pyrazine-4(1H)-carboxamide]: 97%; for `Cc1cnc2c(c1)NC(=O)CN2C(=O)NC(c1ccc(OC(F)(F)F)cc1)C1CCCO1` (stereo not drawn) [Example 200, 7-methyl-2-oxo-N-(tetrahydrofuran-2-yl(4-(trifluoromethoxy)phenyl)methyl)-2,3-dihydropyrido[2,3-b]pyrazine-4(1H)-carboxamide]: 100%; for `COc1cnc2c(c1)NC(=O)CN2C(=O)NC(c1ccc(C(F)(F)F)cc1)C(C)(C)O` (stereo not drawn) [Example 268, Optically active N-(2-hydroxy-2-methyl-1-(4-(trifluoromethyl)phenyl)propyl)-7-methoxy-2-oxo-2,3-dihydropyrido[2,3-b]pyrazine-4(1H)-carboxamide]: 99%.
The same measure for `COCC(NC(=O)N1CC(=O)Nc2ccc(-c3ccn(C)n3)nc21)c1ccc(OC(F)(F)F)cc1` (stereo not drawn) [Example 222, N-(2-methoxy-1-(4-(trifluoromethoxy)phenyl)ethyl)-6-(1-methyl-1H-pyrazol-3-yl)-2-oxo-2,3-dihydropyrido[2,3-b]pyrazine-4(1H)-carboxamide]: 99%.

By inhibition is commonly meant the drop in the measured response relative to a control, in per cent.
